Like-named read-outs stand apart in the source and are kept apart here.

For assay [1], the system named is polyphenol oxidase. Put plainly: Effect of inhibiting polyphenol oxidase activity on dextran aggregation. The assay is classed as cell-based. As to conditions: for effect on polyphenol oxidase induced inactivation: protease inhibitors added before polyphenol oxidase. How it is done: (§1) The standard rate assay published by Drake et al. (Drake D. et al. Infect. Immun. 56:1864-1872 (1988)) was used to study the interaction of S. sobrinus 6715 glucan-binding lectin with high molecular weight dextran. Briefly, bacterial suspensions were adjusted to an optical density of 0.75-0.90 in PBS, and 3-ml suspensions were added to test tubes (13×100 mm). Dextran T-2000 was added at a final concentration of 10 1μg/ml and the suspensions were vortexed for 5 sec. Control tubes received PBS. The decrease in optical density was continuously monitored spectrophotometrically for 5 min. Rate constants were obtained from the slopes of first-order plots of ln A/A0 (A=observed optical density; A0 optical density at time zero) versus time in minutes. Each sample was assayed at least three times.
Cells were suspended in phosphate buffer (20 mM, pH 6.5) and treated with either polyphenol oxidase (Worthington Biochemical Corporation, Freehold N.J., Lot 37A889) (1260 U/ml) for 1 h at 37° C. with rotary shaking (150 rev/min), then washed twice with cold PBS. Inhibitors (all from Sigma), when present, were added before polyphenol oxidase addition at the following concentrations: phenylmethylsulfonyl fluoride (PMSF) 500 μM; leupeptin, 500 μg/ml; ethylenediaminetetracetic acid (EDTA), 5 mM, potassium chloride 200 mM; polyvinylpyrrolidone, 500 μg/m; ascorbic acid, 3 mM; lactic acid, 10%.

Assay [2] has as its system polyphenol oxidase. Described as above. Format: cell-based. As to conditions: inhibitor concentration 2.5%.
The test system of assay [3] is E. coli possessing type 1 fimbriae / Saccharomyces cerevisiae cells. Nature of the assay: Adhesion of E. coli to yeast. Format: cell-based. Here is the method: Materials and methods were generally as described in the previous Examples, but slightly modified for observing adhesion by E. coli to yeast. […] Cells were washed 2× in PBS and suspended in PB. Cells were treated with polyphenol oxidase at 37° C., washed 2×, and resuspended in PBS. E. coli (5×10^8 cells) were incubated with 1×10^5 Saccharomyces cerevisiae cells in a 3 ml volume and rotated with an end-over-end motion at 37° C. for 30 min. Suspensions were harvested, washed 2× in PBS and resuspended in 300 μl PBS. Methyl-α-D-mannose was added to some reaction mixtures. Ten μl samples were withdrawn and placed on a microscope slide, heat-fixed, stained with crystal violet for 2 min, rinsed and dried. Preparations were viewed at 1000× with phase-contrast microscopy. Numbers of bacteria bound to yeast cells were tabulated.

In assay [4] the test system is type 1-fimbriated and P-fimbriated E. coli. Put plainly: Growth inhibition of E. coli. The assay is classed as cell-based. As to conditions: ampicillin 1 mg/ml to 0.015 mg/ml; polyphenol oxidase 1128 to 17.5 units/ml; asparaginase 20 to 0.31 units/ml; data not shown. How it is done: Similar and/or art recognized methods were used to monitor the effects of asparaginase on growth of other microbes including two strains of E. coli, S. pyogenes, Klebsiella pneumoniae, Bacillus cereus, and Proteus vulgaris. Both type 1-fimbriated and P-fimbriated E. coli were incubated with polyphenol oxidase, asparaginase, and ampicillin to test the ability of these agents to inhibit the growth of the bacteria.

Assay [5] concerns B. fragilis (adhesin) / A. naeslundii ATCC 12104 (receptor). Put plainly: Coaggregation B. fragilis / A. naeslundii ATCC 12104. As to conditions: B. fragilis (adhesin) enzyme treated; polyphenol oxidase 90 U/ml.
Procedure: S. sanguis 10556, A. naeslundii strains 12104 and T14V and E. coli were grown static cultures in Todd-Hewitt broth (BBL Microbiology Systems, Cockeysville, Md.). P. gingivalis W50, A. actinomycetemcomitans and C. ochracea were grown in brain heart infusion broth (BBL). F. nucleatum 22586 and P. intermedia 25611 were grown in modified Schaedler broth (BBL). All oral species except S. sanguis 10556 were incubated at 37° C. as static cultures under an anaerobic atmosphere containing H2, CO2 and N2(10:10:80) with GasPaks (BBL). S. sanguis was incubated at 37° C. as static cultures in 5% CO2.
Bacteria were harvested in the mid to late exponential growth phase by centrifugation (10,000×g for 10 min at 4° C.). The cells were washed twice in coaggregation buffer (30 mM 3-[N-morpholino]propanesulfonic acid (MOPS), pH 7.0) and adjusted to an optical density of 0.6-0.8 at 540 nm (1-cm path). […]
Coaggregation was assessed by turbidity changes. Following mixing of the cells for 10 s on a Vortex mixer, absorbance readings were made every 30 min. The percentage of coaggregation was calculated from the following formula: Percent coaggregation=[OD540(A)+OD540(B)−OD540(A+B)]/(OD540(A)+OD540(B)), where A is the control containing cells of one strain, B is the control containing cells of the other strain, and A+B is the reaction mixture containing both cells. […]
The test system of assay [6] is S. sobrinus 6715 glucan-binding lectin. Nature of the assay: Aggregation of S. sobrinus with high molecular weight dextran T-2000 (standard rate assay). The assay is classed as cell-based, Streptococcus sobrinus. As to conditions: dextran T-10 1 mg/ml or glycogen 2.5 mg/ml before polyphenol oxidase treatment. How it is done: S. sobrinus 6715 was maintained on tryptic soy agar (Difco, Detroit, Mich.) and grown for experiments in Terleckyj's defined medium or tryptic soy broth (TSB) (Difco) pretreated with dextranase (1 mg of enzyme per g dry medium) and invertase (5 mg per g dry medium) for 2 h each in 5% CO2 at 37° C. for 16-18h. Cultures were centrifuged at 12,000×g for 10 min and washed twice with cold phosphate buffered saline (PBS, 20 mM, pH 7.2). Cells were suspended in PBS to an optical density of 0.8 (A540). Cultures grown in TSB were harvested and suspended in PBS and subsequently treated with dextranase for 1 h, followed by washing two times in PBS.
as §1, with “Each sample was assayed at least three times.” left out

The mark [7] stands for this setting: known polyphenol oxidase inhibitors.

Consider `O=C(O)CN(CCN(CC(=O)O)CC(=O)O)CC(=O)O` [EDTA, ethylenediaminetetracetic acid], for which, in the assay on polyphenol oxidase [1], the “Percent Inhibition of Polyphenol Oxidase Induced Reduction in Aggregation” value is 100% and the “effect on the effects of polyphenol oxidase on glucan aggregation” value (“effect on the effects” for short) is “reduced the effects”.

On to `[Cl-].[K+]` [KCl, potassium chloride], for which the “Percent Inhibition of Polyphenol Oxidase Induced Reduction in Aggregation” value in the assay on polyphenol oxidase [2] came to 100%. For the same compound, in the assay on polyphenol oxidase [1] (setting [7]), the “effect on the effects” value is “reduced the effects”.

`COC1OC(CO)C(O)C(O)C1O` [Methyl-α-mannose, Methyl-α-D-mannose]: the “effect of preincubating E. coli before polyphenol oxidase treatment” value in assay [3] was “eliminated polyphenol oxidase mediated reduction of adhesion”. Also, the “attachment of control cells to Saccharomyces” value in assay [3] (added to control cells) is on record as “prevented their attachment”.

`O=S(=O)(F)Cc1ccccc1` [PMSF, phenylmethylsulfonyl fluoride]: in the assay on polyphenol oxidase [1] (inhibitor concentration 500 μM), the “Percent Inhibition of Polyphenol Oxidase Induced Reduction in Aggregation” value was 0%. Also, the “effect on polyphenol oxidase induced inactivation” value in the assay with polyphenol oxidase [1] is recorded as “completely inhibited”.

As to `CC1(C)S[C@@H]2[C@H](NC(=O)[C@H](N)c3ccccc3)C(=O)N2[C@H]1C(=O)O` [ampicillin, reference compound], in assay [4], the “inhibition of growth of P-fimbriated E. coli” value is on record as “inhibited the growth” and the “inhibition of growth of type 1-fimbriated E. coli” value is listed as “inhibited the growth”.

As for `O=C1O[C@H]([C@@H](O)CO)C(O)=C1O` [ascorbic acid], the “Percent Inhibition of Polyphenol Oxidase Induced Reduction in Aggregation” value with polyphenol oxidase [1] (inhibitor concentration 3 mM) worked out at 100%. Besides, the “effect on the effects” value in the assay on polyphenol oxidase [1] (setting [7]) is “reduced the effects”.

With `CC(O)C(=O)O` (stereo not drawn) [lactic acid], the “Percent Inhibition of Polyphenol Oxidase Induced Reduction in Aggregation” value in the assay on polyphenol oxidase [1] (inhibitor concentration 10%) was 92 (+/−8) Percent. In addition, the “effect on the effects” value in the assay on polyphenol oxidase [1] (setting [7]) is reported as “reduced the effects”.

On to `CC(=O)N[C@@H](CC(C)C)C(=O)N[C@@H](CC(C)C)C(=O)N[C@H](C=O)CCCNC(=N)N` [leupeptin], for which the “Percent Inhibition of Polyphenol Oxidase Induced Reduction in Aggregation” value in the assay with polyphenol oxidase [1] (inhibitor concentration 500 μg/ml) came to 0%. The “effect on polyphenol oxidase induced inactivation” value in the assay with polyphenol oxidase [1] is recorded as “completely inhibited”.

As for Per: horseradish peroxidase, the “Inhibition % of coaggregation” value in assay [5] is reported as 11%.

glycogen [reference compound]: the “effect of pre-incubating the bacteria with carbohydrate on the polyphenol oxidase inhibition of aggregation” value in assay [6] is “no effect”.

Values taken from patent publication US20020009436A1, “Methods and compositions for inhibiting adhesion by microorganisms” (priority 1999, published 2002).
